Source: patent publication US5330990A, “Substituted urea compounds and their preparation and use” (Novo Nordisk A/S, priority 1989, dated 1994)
Where a name gives a salt, the structure may show the parent alone.

The compounds below were run against T1, 5-HT3 receptor (Cavia porcellus, UniProt O70212) (assay: 5HT3-antagonist activity: inhibition of 5-HT-induced contractions of isolated guinea pig ileum in the presence of methysergide). Details: not given.
T1 construct: from tissue; host or cells: guinea pig isolated ileum (terminal 15 cm)
T1 sequence (O70212 20-490): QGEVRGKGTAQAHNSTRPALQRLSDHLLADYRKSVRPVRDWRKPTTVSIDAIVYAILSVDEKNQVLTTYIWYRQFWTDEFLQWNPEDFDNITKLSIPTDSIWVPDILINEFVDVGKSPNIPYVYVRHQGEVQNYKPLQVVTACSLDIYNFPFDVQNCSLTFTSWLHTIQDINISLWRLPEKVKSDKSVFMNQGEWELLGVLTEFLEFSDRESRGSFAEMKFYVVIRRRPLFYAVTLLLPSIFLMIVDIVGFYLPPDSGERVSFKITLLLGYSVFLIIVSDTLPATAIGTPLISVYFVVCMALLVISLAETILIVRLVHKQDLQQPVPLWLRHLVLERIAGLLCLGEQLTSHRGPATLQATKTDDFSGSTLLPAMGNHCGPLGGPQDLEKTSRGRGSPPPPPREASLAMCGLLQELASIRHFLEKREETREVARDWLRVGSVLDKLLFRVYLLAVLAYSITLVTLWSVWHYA
Format: cell-based
Method: Compounds of formula (I) were tested for their 5HT3 -antagonist activity using the following method:
5-HT produces contractions of the guinea pig ileum via 2 different receptors. 1) direct contractions via 5-HT2 receptors on the muscle, 2) indirect contractions via 5-HT3 recaptots on intrinsic gut neurones, producing acetylcholine release. By administering 5-HT to lengths of ileum in the presence of methysergide (to block 5-HT2 receptors) you can assay 5-HT3 receptor activity.
Guinea pigs were killed by means of cervical dislocation the terminal 15 cm of ileum removed, and 1.5-2.0 cm lengths prepared and mounted in 10 ml organ baths containing calcium deficient tyrodes of the following composition (mM) NaCl (136.9); KCl (2.68); CaCl2 (0.9); MgCl2 (1.05); NaCO3 (11.9); NaH2 PO4 (0.42); glucose (5.55) and containing methysergide (10^-6 M) maintained at 37° C. and gassed with 95% O2 and 5% CO2. The mechanical activity of the muscle was measured by a HSE 351 isometric transducer connected via a HSE bridge amplifier to a potentiometric pen recorder. Resting tension was 1 g and the tissue left to equilibrate for 1 hour.
First a dose response curve is obtained to acetylcholine on each tissue. Then one tissue is incubated for 20 min with tyrode and three with tyrode plus the putative 5-HT3 antagonist. After this incubation dose response curves to 5-HT are constructed to 5-HT in all 4 tissues (one control 3+test drug). Contact time for 5-HT 30 sec.
The maximum response to acetylcholine for each tissue is measured and the responses to 5-HT calculated as percentage maximum of the acetylcholine (Ach) maximum response in that tissue. The peak of the 5-HT response is measured.
For each tissue the concentration of 5-HT giving 100% of the maximum acetylcholine response (measured at 30 sac) is quoted.
The effect of a drug is quantified as the ratio of the concentration of 5-HT producing a 100% maximal Ach response in the presence and absence of the antagonist (dose ratio). The figure quoted is the concentration of the antagonist giving a dose ratio of 2, (A2).

With `O=C(Nc1ccccc1-c1nc(C2CC2)no1)NC1CN2CCC1CC2` (stereo not drawn) [Example 10, N-(2-(3-Cyclopropyl-1,2,4-oxadiazol-5-yl)-phenyl)-N^1-(3-quinuclidinyl)urea] the Kb was 283 nM.

Same assay, conditions: guinea pig ileum; methysergide 10^-6 M; 37° C.; 20 min incubation with antagonist; 5-HT contact time 30 sec; dose ratio at 100% maximal Ach response; read-out: A2 (concentration of the antagonist giving a dose ratio of 2) (converted)

In order of falling Kb:
1. Cc1noc(-c2ccccc2NC(=O)N[C@H]2C[C@H]3CC[C@@H](C2)N3C)n1 [Example 6, N-(Endo-8-methyl-8-azabicyclo[3.2.1]oct-3-yl) -N^1-(2-(3-methyl-1,2,4-oxadiazol-5-yl)-phenyl)urea, HCl]  293 nM
2. CN1[C@@H]2CC[C@H]1C[C@@H](NC(=O)Nc1ccccc1-c1nc(C3CC3)no1)C2 [Example 5, N-(2-(3-Cyclopropyl-1,2,4-oxadiazol-5-yl)phenyl)-N^1-(endo-8-methyl-8-azabicyclo[3.2.1]oct-3-yl)urea HCl]  43.5 nM
3. CON=Cc1ccccc1NC(=O)N[C@H]1C[C@H]2CCC[C@@H](C1)N2C [Example 18, N-(2-(N-Methoxyiminomethyl)phenyl)-N^1-(endo-9-methyl-9-azabicyclo[3.3.1]non-3-yl)urea]  36.3 nM
4. CCON=Cc1ccccc1NC(=O)N[C@H]1C[C@H]2CC[C@@H](C1)N2C [Example 16, N-(Endo-8-methyl-8-azabicyclo[3.2.1]oct-3-yl)-N^1-(2-(N-ethoxyiminomethyl)phenyl)urea, HCl]  36.3 nM
5. CN1[C@@H]2CCC[C@H]1C[C@@H](NC(=O)Nc1ccccc1-c1nc(-c3ccccc3)no1)C2 [Example 11, N-(Endo-9-methyl-9-azabicyclo[3.3.1]non-3-yl)-N ^1-(2-(3-phenyl-1,2,4-oxadiazol-5-yl)phenyl)urea]  24 nM
6. CCCCc1noc(-c2ccccc2NC(=O)N[C@H]2C[C@H]3CC[C@@H](C2)N3C)n1 [Example 7, N-(2-(3-Butyl-1,2,4-oxadiazol-5-yl)phenyl)-N^1-(endo-8-methyl-8-azabicyclo[3.2.1]oct-3-yl)urea, (CO2 H)2]  13 nM
7. CN1[C@@H]2CC[C@H]1C[C@@H](NC(=O)Nc1ccccc1C=NOCC1CC1)C2 [Example 15, N-(Endo-8-methyl-8-azabicyclo[3.2.1]oct-3-yl)-N^1-(2-(N-cyclo-propylmethoxyiminomethyl)phenyl)urea, HCl]  5.05 nM
8. CN1[C@@H]2CCC[C@H]1C[C@@H](NC(=O)Nc1ccccc1-c1nc(C3CC3)no1)C2 [Example 8, N-(2-(3-Cyclopropyl-1,2,4-oxadiazol-5-yl)-phenyl)-N^1-(endo-9-methyl-9-azabicyclo[3.3.1]non-3-yl)urea, HCl]  3.41 nM
